From patent publication US7282491B2, “Prokaryotic proteasomal proteases of Mycobacterium tuberculosis (MTB) as targets for antibiotic therapy” (Cornell Research Foundation, Inc., priority 2002, dated 2007) come the findings set out here.

The subject of assay [1] is Rv2115c and Rv2097c mutants. Format: cell-based, Mycobacterium tuberculosis.

In the case of `CC(C)C[C@H](NC(=O)[C@H](Cc1cccc2ccccc12)NC(=O)N1CCOCC1)B(O)O` [MLN-273, N-[4-morpholine]carbonyl-β-[1-naphthyl]-L-alanine-L-leucine boronic acid], the “augmentation of the toxicity of nitrite against the Rv2115c mutant” value with Rv2115c-mutant Mtb was “augmented the toxicity of nitrite against the Rv2115c mutant”. For the same molecule, the “growth of Rv2115c and Rv2097c mutants under standard culture conditions” value in assay [1] was “suppressed the growth of these mutants to same extent as for wt Mtb”.
